Measured values published in BindingDB's records for doi:10.1007/s00210-004-0951-4 (Vernalis Research, 2004).
Several values for one entry are separate records, joined by “and”; a condition that tells them apart may be missing. Equal entries are not always repeated. Structures can show the parent of a compound that is named as a salt.

Columns and labels:
[1] = target: T1, 5-hydroxytryptamine receptor 2C (Homo sapiens, UniProt P28335)
T1 sequence (P28335 whole entry): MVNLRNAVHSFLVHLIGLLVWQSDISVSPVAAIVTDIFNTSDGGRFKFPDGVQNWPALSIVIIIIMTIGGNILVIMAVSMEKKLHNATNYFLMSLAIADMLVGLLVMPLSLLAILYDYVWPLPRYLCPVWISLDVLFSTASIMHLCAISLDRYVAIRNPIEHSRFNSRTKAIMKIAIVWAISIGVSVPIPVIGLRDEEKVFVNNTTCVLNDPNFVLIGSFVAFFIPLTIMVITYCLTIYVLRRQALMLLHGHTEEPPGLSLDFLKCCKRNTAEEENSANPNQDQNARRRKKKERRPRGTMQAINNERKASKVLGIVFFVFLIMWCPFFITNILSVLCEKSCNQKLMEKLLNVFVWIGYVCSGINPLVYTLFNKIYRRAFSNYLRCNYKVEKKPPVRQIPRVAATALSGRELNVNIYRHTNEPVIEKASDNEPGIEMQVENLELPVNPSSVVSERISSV

[2] = target: 5-hydroxytryptamine receptor 2B (Homo sapiens, UniProt P41595)
5-hydroxytryptamine receptor 2B, sequence (P41595 whole entry): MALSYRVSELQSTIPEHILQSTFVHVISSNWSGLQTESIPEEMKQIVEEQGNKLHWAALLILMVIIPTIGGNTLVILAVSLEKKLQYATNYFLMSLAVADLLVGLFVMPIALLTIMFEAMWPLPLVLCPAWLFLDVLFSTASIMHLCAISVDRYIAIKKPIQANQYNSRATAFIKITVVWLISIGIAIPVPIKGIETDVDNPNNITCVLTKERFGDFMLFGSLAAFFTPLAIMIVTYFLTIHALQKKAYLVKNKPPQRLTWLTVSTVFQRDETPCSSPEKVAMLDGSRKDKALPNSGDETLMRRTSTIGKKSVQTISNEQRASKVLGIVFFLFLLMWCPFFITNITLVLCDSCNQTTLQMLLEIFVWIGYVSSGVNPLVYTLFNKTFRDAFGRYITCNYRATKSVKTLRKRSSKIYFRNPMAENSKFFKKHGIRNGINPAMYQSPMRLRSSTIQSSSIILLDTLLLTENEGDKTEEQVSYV

SMILES	Ki [1]	Ki [2]
CC(C)CC(N(C)C)C1(c2ccc(Cl)cc2)CCC1 (stereo not drawn) [CAS_106650-56-0]	> 10000 nM	–
Cc1cc2c(cc1Cl)N(C(=O)Nc1ccc(Oc3cccnc3C)nc1)CC2 [CAS_181632-25-7]	7.08 nM	145 nM
CCCN(CCC)C1CCc2cccc(O)c2C1 (stereo not drawn)	–	4070 nM
NCCc1c[nH]c2ccccc12 [1H-indole-3-ethanamine]	2340 nM	102 nM
O=C(CCCN1CCC2(CC1)C(=O)NCN2c1ccccc1)c1ccc(F)cc1 [8-[4-(4-fluorophenyl)-4-oxidanylidene-butyl]-1-phenyl-1,3,8-triazaspiro[4.5]decan-4-one]	603 nM	–
CN1CC(C(=O)NC2(C)OC3(O)C4CCCN4C(=O)C(Cc4ccccc4)N3C2=O)C=C2c3cccc4[nH]cc(c34)CC21 (stereo not drawn) [CAS_113-15-5]	1.91 nM	1.29 nM
CN1CC[C@@H]2CN3CCc4cccc(c43)[C@@H]2C1 [SDZ SER 082 FUMARATE]	7.59 nM	204 nM
COc1ccc2c(c1O[C@H]1CCNC1)CCC2 [ORG-37684]	7.59 nM	42.7 nM
CSc1cc2c(cc1C(F)(F)F)N(C(=O)Nc1cccnc1)CC2	2.19 nM	2.45 nM
OC(c1ccccc1)C1CCN(CCc2ccccc2)CC1 (stereo not drawn) [MDL-11939]	263 nM	3310 nM
Cn1cc(CCN)c2cc(O)ccc21 [5-HT,omega-N-Me]	2.69 nM	6.92 nM
CC(N)Cn1ccc2cc(F)c(Cl)cc21 (stereo not drawn) [NSC_3045226]	6.03 nM	5.37 nM
CCC(CO)NC(=O)C1C=C2c3cccc4[nH]cc(c34)CC2N(C)C1 (stereo not drawn) [NSC_8226]	4.57 nM	0.46 nM
CN1CC(NS(=O)(=O)N(C)C)CC2c3cccc4c3c(cn4C)CC21 (stereo not drawn) [CAS_64795-35-3]	–	3.47 nM
C[C@H](N)Cc1cccc(C(F)(F)F)c1 [Norfenfluramine (+)]	51.3 nM	100 nM
CC(C)c1cc(-c2ccc(F)c3ccccc23)nc(N)n1 [RS-127445]	468 nM	1.07 nM
FC(F)(F)c1cccc(N2CCNCC2)c1 [TFMPP]	–	58.9 nM
CC[C@@H](CO)NC(=O)[C@@H]1C=C2c3cccc4c3c(cn4C)C[C@H]2N(C)C1	4.47 nM	–

SMILES	Ki [1]	Ki [2]
C[C@H](N)CN1CCc2ccc(Br)cc21	5.62 nM	30.2 nM
Clc1cncc(N2CCNCC2)n1 [L-630,571]	97.7 nM	617 nM
Cc1nc2sccn2c(=O)c1CCN1CCC(=C(c2ccc(F)cc2)c2ccc(F)cc2)CC1	6.61 nM	2.14 nM
NCCc1c[nH]c2ccc(C(N)=O)cc12 [[3H]-5-carboxamidotryptamine]	–	186 nM
O=C1NCN(c2ccccc2)C12CCN(CCCOc1ccc(F)cc1)CC2 [NSC_77445]	1550 nM	–
Cc1nc(-c2ccc(-c3ccc(C(=O)N4CCc5cc6c(cc54)C4(CCN(C)CC4)CO6)cc3)c(C)c2)no1 [4-[2-methyl-4-(5-methyl-1,2,4-oxadiazol-3-yl)phenyl]phenyl-1'-methylspiro[3,5,6,7-tetrahydro-2H-furo[2,3-f]indole-3,4'-(hexahydropyridine)]-5-ylmethanone]	2000 nM	1350 nM
CN1CCN(c2nc3cc(C(F)(F)F)ccc3n3cccc23)CC1 [CAS_109028-10-6]	–	871 nM
Cn1ccc2cc3c(cc21)CCN3C(=O)Nc1cccnc1	–	22.4 nM
COc1cc(CC(C)N)c(OC)cc1I (stereo not drawn) [[125I]2,5-dimethoxy-4-iodoamphetamine]	8.32 nM and 5.37 nM	28.2 nM and 53.7 nM
c1ccc2nc(N3CCNCC3)ccc2c1 [2-Piperazin-1-yl-quinoline (Quipazine)]	53.7 nM	85.1 nM
CC(C)CC(N)C1(c2ccc(Cl)cc2)CCC1 (stereo not drawn) [NSC_134771]	> 10000 nM	> 10000 nM
CSc1ccc2c(c1)C(N1CCN(C)CC1)Cc1ccccc1S2 (stereo not drawn) [methanesulfonic acid;1-methyl-4-(3-methylsulfanyl-5,6-dihydrobenzo[b][1]benzothiepin-5-yl)piperazine]	4.47 nM	–
FC(F)(F)c1ccc(N2CCNCC2)nc1Cl [2-Chloro-3-(trifluoromethyl)-6-(1-piperazinyl)pyridine]	14.8 nM	91.2 nM
COc1cc(OC)c(C(=O)CCCCN2CCC3(CC2)NC(=O)NC3=O)cc1NS(=O)(=O)c1ccc(C(F)(F)F)cc1 [N-[5-[5-(2,4-Dioxo-1,3,8-triazaspiro[4.5]decan-8-yl)-1-oxopentyl]-2,4-dimethoxyphenyl]-4-(trifluoromethyl)benzenesulfonamide]	5.01 nM	2880 nM
Cc1cc(NC(=O)Nc2ccc3c(ccn3C)c2)sn1 [CAS_3277600]	–	126 nM
CCCN1CCCC2Cc3[nH]ncc3CC21 (stereo not drawn) [NSC_55397]	3310 nM	302 nM
COc1cc(CC(C)N)c(OC)cc1Br (stereo not drawn) [2-(4-Bromo-2,5-dimethoxy-phenyl)-1-methyl-ethylamine((-)-DOB)]	–	43.6 nM
CC(N)Cc1c[nH]c2ccc(OCc3cccs3)cc12 (stereo not drawn) [NSC_5311036]	77.6 nM	–
